What was measured:
Format in all cases: biochemical
β-secretase (BACE) [1] = target: T1, β-secretase (BACE) (Homo sapiens, UniProt P56817); assay: BACE Assay-1 (MCA-substrate, IC50); settings: procedure of Example 158
T1 construct: purchased Panvera
Description: The following standards are reagents were used in this assay: Sodium Citrate trisodium salt dihydrate (Sigma), Citric Acid monohydrate (Merck), PEG8000 (Sigma), MCA-substrate (Bachem), β-secretase (BACE) (Panvera), 96-well plate zwart (Costar (Elscolab)), StatVal (Bachem).
The following standard assay buffer solution was prepared and used in this assay: 0.05 M, pH 5.0 mixture of sodium citrate trisodium salt dihydrate (9.56 g), citric acid monohydrate (3.68 g) and PEG8000 (0.50 g).
The MCA-substrate stock solution was prepared by mixing 10 mg MCA-substrate with 5 mL DMSO for a final solution concentration of 2.0 mg/mL. The substrate work solution was prepared by mixing 0.1 mL substrate in 1.90 mL assay buffer for a final concentration of 0.05 mM. The β-secretase (BACE) work solution was prepared by mixing 8 μL BACE in 2 mL assay buffer for a final concentration of 10 µg/mL.
The screen procedure for this assay was as follows. 60 μL of assay buffer was pippeted into each well of a 96-well plate. To each well was then pipetted 1 μL of test compound at the selected concentration. To each well was then added 20 μL of the β-secretase work solution and […] of the MCA-substrate stock solution.
The procedure for the blank was as follows. 80 μL of assay buffer was pipetted into each well to be used as a blank control. To each well was then added 1 μL of DMSO and 20 μL of MCA-substrate solution in each well.
The procedure for the positive control was as follows. 60 μL of assay buffer was pipetted into each well to be used as a positive control. To each well was then added 1 μL of DMSO, 20 μL of BACE work solution and 20 μL of MCA-substrate stock solution.
For test compounds, measured at multiple concentrations, the measured T0 and T60 values were used to calculate an IC50 value using Graphpad Software (or PIR).

β-secretase (BACE) [2] = target: T1, β-secretase (BACE); assay: BACE Assay-2 (FS1 substrate, IC50 and Ki); settings: procedure of Example 159, FS1 substrate
Description: (§1) The FS1-substrate stock solution was prepared in DMSO as a 10 mg/mL solution. The FS1-substrate working solution was prepared by diluting the 10 mg/mL stock solution with substrate assay buffer to a final concentration of […]. The β-secretase (BACE) working solution was prepared by diluting a 0.83 mg/mL BACE stock solution with enzyme assay buffer to a final concentration of 4 μg/mL.
Test compounds were dissolved in DMSO at 10 mM.
(§2) The procedure for this assay was as follows: 15 μL of BACE working solution was pipetted into each well of a 96-well plate. To each well was then pipetted 2 μL of test compound at the selected concentration. Test compound and BACE were then mixed with a pipettor and incubated for 20 min at room temperature. To each well was then added 10 μL of the FS1 substrate working solution.
(§3) The procedure for the positive control was as follows:15 μL of BACE working solution was pipetted into each well to be used as a positive control. To each well was then pipetted 2 μL of vehicle. Vehicle and BACE were then mixed with a pipettor and incubated for 20 min at room temperature. To each well was then added 10 μL of the FS1 substrate working solution.
For test compounds, measured at multiple concentrations, the measured T0 and T60 values were used to calculate an IC50 value using Graphpad Software (or PIR). For test compounds, Ki inhibition was determined as follows: For each compound concentration and positive control, rate of cleavage of substrate (Vi, where i=compound concentration in μM) was determined as Δ Fluorescence/Δ time (min). Cleavage rates (Vi) were plotted as a function of inhibitor concentration in μM [I]. The Ki was then determined by fitting the following equation to the graph of [I] vs Vi Y=aVmax/(50+24*(1+X/Ki)),

β-secretase (BACE) [3] = target: T1, β-secretase (BACE); assay: BACE % Inhibition Assay ((Aedens)-[…]-(Dabcyl K-amide) substrate); settings: % error ±10%; for inhibition at 3 µM: 3 μM compound; for inhibition at 10 µM: 10 μM compound
Description: as §1, with “substrate” for “FS1-substrate”
Test compounds were dissolved in DMSO to 10 mM.
as §2, with “The screening” for “The”, “the” for “the FS1”, “solution. The plates were then incubated for 1 hour at room temperature.” for “solution.”
The procedure for the blank was as follows. 15 μL of assay buffer was pipetted into each well to be used as a blank control. To each well was then added 2 μL of vehicle and 10 μL of substrate working solution. The plates were then incubated for 1 hour at room temperature.
as §3, with “follows: 15 μl” for “follows:15 μL”, “the” for “the FS1”, “solution. The plates were the incubated for 1 hour at room temperature.” for “solution.”
For test compounds, % inhibition was determined at each concentration as follows: […]

β-secretase (BACE) [4] = target: T1, β-secretase (BACE); assay: BACE FS1 % Inhibition Assay; settings: read-out: % Inhibition (FS); for inhibition at 0.3 µM: 0.3 μM test compound; for inhibition at 1 µM: 1 μM test compound; for inhibition at 3 µM: 3 μM test compound
In short: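 Percent inhibition per compound concentration was referenced to vehicle-treated enzyme and no-enzyme wells. Enzyme at a 4 μg/mL working stock plus compound was mixed for 20 min at room temperature before the FS1 substrate (300 μg/mL working stock) was added for a 1 h room-temperature reaction.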

T1 sequence (P56817 46-501): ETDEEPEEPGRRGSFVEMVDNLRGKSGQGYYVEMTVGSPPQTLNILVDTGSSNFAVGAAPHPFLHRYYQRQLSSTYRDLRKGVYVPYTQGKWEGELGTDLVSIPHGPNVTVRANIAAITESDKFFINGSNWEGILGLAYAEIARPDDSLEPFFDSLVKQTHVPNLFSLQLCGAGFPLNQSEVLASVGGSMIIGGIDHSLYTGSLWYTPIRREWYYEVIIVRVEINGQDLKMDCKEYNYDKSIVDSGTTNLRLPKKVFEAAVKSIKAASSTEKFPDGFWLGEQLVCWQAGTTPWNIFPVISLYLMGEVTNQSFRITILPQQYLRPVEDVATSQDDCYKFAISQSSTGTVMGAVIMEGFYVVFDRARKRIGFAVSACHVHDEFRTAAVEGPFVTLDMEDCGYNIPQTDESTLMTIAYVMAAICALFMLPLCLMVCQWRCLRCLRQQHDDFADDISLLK

SMILES | IC50 (β-secretase (BACE) [1]) | Ki (β-secretase (BACE) [2]) | also measured
CCCN1Cc2cc(Oc3cccc(N(C#N)CC4CCCCC4)c3)ccc2N=C1N [Compound 56] | 0.97 µM | 0.77 µM | IC50 (β-secretase (BACE) [2]): 5.4 µM; inhibition at 3 µM (β-secretase (BACE) [3]): 35%; inhibition at 10 µM (β-secretase (BACE) [3]): 79%
CN(C(=O)CC(CC(=O)N(C)C1CCCCC1)N1Cc2cc(Oc3ccccc3)ccc2N=C1N)C1CCCCC1 [Compound 107, 3-(2-Amino-6-phenoxy-4H-quinazolin-3-yl)-pentanedioic acid bis-(cyclohexyl-methyl-amide)] | 0.82 µM | 1.2 µM | IC50 (β-secretase (BACE) [2]): 4.58 µM; inhibition at 3 µM (β-secretase (BACE) [3]): 48%; inhibition at 10 µM (β-secretase (BACE) [3]): 78%
CCCN1Cc2cc(Oc3cccc(CNS(=O)(=O)c4ccccc4)c3)ccc2N=C1N [Compound 225] | 2.9 µM | – | –
NC1=Nc2ccc(Oc3ccccc3)cc2CN1C(CNC(=O)C1CCCC1)C1CCCCC1 (stereo not drawn) [Compound 295] | 0.016 µM | 0.03 µM | inhibition at 0.3 µM (β-secretase (BACE) [4]): 79%; inhibition at 1 µM (β-secretase (BACE) [4]): 106%; inhibition at 3 µM (β-secretase (BACE) [4]): 116%
CCCN1Cc2cc(Oc3cccc(CNCc4cccc(O)c4)c3)ccc2N=C1N [Compound 305] | 1.4 µM | – | –
CCCN1Cc2cc(Oc3cccc(CNCc4ccccc4OC)c3)ccc2N=C1N [Compound 335] | 0.24 µM | – | –
CCCN1Cc2cc(Oc3cccc(CNCc4c(OC)cccc4OC)c3)ccc2N=C1N [Compound 340] | 2 µM | – | –
CCCN1Cc2cc(Oc3cccc(CNCc4c(C)cc(C)cc4C)c3)ccc2N=C1N [Compound 344] | 0.058 µM | – | –

More lines, main results first:

IC50 (β-secretase (BACE) [1]) | Ki (β-secretase (BACE) [2]) | SMILES | also measured
3.7 µM | – | CN(C(=O)CCCN1Cc2cc(C(=O)c3ccccc3)ccc2N=C1N)C1CCCCC1 [Compound 10] | –
6.1 µM | 3.3 µM | CCCN1Cc2cc(Oc3cccc(NC(=O)C4CCCCC4)c3)ccc2N=C1N [Compound 44] | inhibition at 3 µM (β-secretase (BACE) [3]): < 30%; inhibition at 10 µM (β-secretase (BACE) [3]): 31%
0.048 µM | 0.13 µM | CCCC(CCC(=O)N(C)C1CCCCC1)N1Cc2cc(Oc3ccccc3)ccc2N=C1N (stereo not drawn) [Compound 86] | inhibition at 3 µM (β-secretase (BACE) [3]): 72%; inhibition at 10 µM (β-secretase (BACE) [3]): 80%
0.99 µM | – | NC1=Nc2ccc(Oc3cccc(NS(=O)(=O)c4ccccc4)c3)cc2CN1CCCCC(=O)N(C1CCCCC1)C1CCCCC1 [Compound 113] | –
0.14 µM | 0.29 µM | CSc1ccccc1-c1ccc2c(c1)CN(Cc1cccc(C(=O)N(C)C3CCCCC3)c1)C(N)=N2 [Compound 322] | inhibition at 0.3 µM (β-secretase (BACE) [4]): < 30%; inhibition at 1 µM (β-secretase (BACE) [4]): < 30%; inhibition at 3 µM (β-secretase (BACE) [4]): 95%
– | 0.42 µM | CN(C(=O)c1cccc(CN2Cc3cc(-c4ccccc4Oc4ccccc4)ccc3N=C2N)c1)C1CCCCC1 [Compound 326] | inhibition at 0.3 µM (β-secretase (BACE) [4]): < 30%; inhibition at 1 µM (β-secretase (BACE) [4]): 35%; inhibition at 3 µM (β-secretase (BACE) [4]): 79%

Reference: patent publication US8426429B2, “2-amino-quinazoline derivatives useful as inhibitors of β-secretase (BACE)” (Jansssen Pharmaceutica N.V., priority 2004, dated 2013)
